Laboratory results taken from patent US6455510B1, “Chemical Compounds” (SmithKline Beecham Corporation, priority 1997, dated 2002).

What was measured:
[1] = biological target: T1, human adenosine A3 receptor (Homo sapiens, UniProt P0DMS8); experiment: Reporter gene assay (CRE/SPAP) in CHO cells, agonist activity, adenosine A3; type: cell-based; settings: CHO cells stably transfected with human adenosine A3 receptor; inhibition of forskolin-stimulated SPAP production; potency relative to NECA=1
T1 construct: expressed in transfected cells; host or cells: Chinese hamster ovary (CHO) cells containing CRE/SPAP/HYG reporter elements
T1 sequence (P0DMS8 1-318): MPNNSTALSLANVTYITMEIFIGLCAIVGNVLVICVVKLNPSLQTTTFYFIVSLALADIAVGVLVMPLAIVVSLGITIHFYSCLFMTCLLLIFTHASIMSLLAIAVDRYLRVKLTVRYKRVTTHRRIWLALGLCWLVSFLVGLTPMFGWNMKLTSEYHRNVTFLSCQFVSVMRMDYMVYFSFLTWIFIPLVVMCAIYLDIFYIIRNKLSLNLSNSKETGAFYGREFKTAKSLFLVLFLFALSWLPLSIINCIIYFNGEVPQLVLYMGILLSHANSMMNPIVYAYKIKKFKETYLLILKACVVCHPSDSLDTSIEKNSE
Experimental: (§1) Reporter Gene Experiments
(§2) Agonist activity was measured in Chinese hamster ovary (CHO) cells containing the CRE/SPAP/HYG (CRE=cyclic AMP response element; HYG=hygromycin resistance; SPAP=secreted placental alkaline phosphatase) reporter gene elements, which upon stimulation of cAMP levels produced SPAP. A cell line was used, which was stably transfected with either the human adenosine Al receptor or the human adenosine A3 receptor in addition to the above elements. Cells were plated out in 96-well plates in culture medium and incubated at 37° C. for 1 hour. For measurement of potency, agonists were added to the appropriate wells at a concentration range of approximately 10^−10-10^−5M. 15 Min later, cAMP levels were stimulated by addition of a maximal concentration of forskolin. All cells were then incubated for a further 5 hours at 37° C., and cooled to room temperature, after which a substrate for the phosphatase (para-nitrophenol phosphate, pNPP), which is converted by SPAP to a coloured reagent) was then added and the 96-well plates were read in a plate reader. From these readings, the concentration-dependence of the inhibition by the agonist for forskolin-stimulated SPAP production can be calculated. One of the agonists tested on each 96-well plate was the standard non-selective agonist, N-ethylcarboxamidoadenosine (NECA), and the potency of all test agonists is expressed relative to that of the NECA standard.
(§3) (ECR=equipotent concentration ratio relative to NECA=1)

[2] = biological target: T2, human adenosine A1 receptor (Homo sapiens, UniProt P30542); experiment: Reporter gene assay (CRE/SPAP) in CHO cells, agonist activity, adenosine A1; type: cell-based; settings: CHO cells stably transfected with human adenosine A1 receptor; inhibition of forskolin-stimulated SPAP production; potency relative to NECA=1
T2 construct: expressed in transfected cells; host or cells: Chinese hamster ovary (CHO) cells containing CRE/SPAP/HYG reporter elements
T2 sequence (P30542 1-326): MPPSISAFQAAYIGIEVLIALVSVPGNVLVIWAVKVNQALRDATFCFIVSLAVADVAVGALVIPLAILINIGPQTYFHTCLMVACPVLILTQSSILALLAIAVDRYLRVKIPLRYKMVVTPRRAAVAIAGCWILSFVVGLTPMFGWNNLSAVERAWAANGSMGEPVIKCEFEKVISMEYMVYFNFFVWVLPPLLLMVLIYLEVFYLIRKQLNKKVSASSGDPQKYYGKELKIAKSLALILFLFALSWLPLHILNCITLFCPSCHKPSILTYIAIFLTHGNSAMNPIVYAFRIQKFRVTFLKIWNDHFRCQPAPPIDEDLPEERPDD
Experimental: as §1
as §2, with “For measurement of potency, agonists were added to the appropriate wells at a concentration range of approximately 10^−10-10^−5M.” left out, “calculated.” for “calculated. One of the agonists tested on each 96-well plate was the standard non-selective agonist, N-ethylcarboxamidoadenosine (NECA), and the potency of all test agonists is expressed relative to that of the NECA standard.”
as §3

SMILES	A3 Receptor, Reporter Gene Assay ECR (equipotent concentration ratio relative to NECA=1) [1]	A1 Receptor, Reporter Gene Assay ECR (equipotent concentration ratio relative to NECA=1) [2]
CS(=O)(=O)N1CCC(Nc2nc(Cl)nc3c2ncn3[C@@H]2O[C@H](CF)[C@@H](O)[C@H]2O)CC1 [Example 23, 2-Chloro-5′-deoxy-5′-fluoro-N-(1-methanesulfonyl-piperidin-4-yl)-adenosine]	48.90	11.20
CC(C)CNc1nc(Cl)nc2c1ncn2[C@@H]1O[C@H](CF)[C@@H](O)[C@H]1O [Example 22, 2-Chloro-5′-deoxy-5′-fluoro-N-isobutyl-adenosine]	>145.00	3.30
CCNC(=O)N1CCC(Nc2nc(Cl)nc3c2ncn3[C@@H]2O[C@H](CF)[C@@H](O)[C@H]2O)CC1 [Example 29, 4-[2-Chloro-9-(5S-fluoromethyl-3R,4S-dihydroxy-tetrahydro-furan-2R-yl)-9H-purin-6-ylamino]-piperidine-1-carboxylic acid ethylamide]	>236.00	51.60
CC(C)(C)Nc1ncnc2c1ncn2[C@@H]1O[C@H](CF)[C@@H](O)[C@H]1O [Example 20, N-tert-Butyl-5′-deoxy-5′-fluoro-adenosine]	>353.00	8.17
CC(F)(F)[C@H]1O[C@@H](n2cnc3c(NCC4CC4)ncnc32)[C@H](O)[C@@H]1O [Example 17, (2R,3R,4S,5S)-2-[6-(Cyclopropylmethyl-amino)-purin-9-yl]-(1,1-difluoro-ethyl)-tetrahydro-furan-3,4-diol]	>353.00	22.30
CC(F)(F)[C@H]1O[C@@H](n2cnc3c(NC4CC5CCC4C5)ncnc32)[C@H](O)[C@@H]1O (stereo partly drawn) [Example 5, (2R,3R,4S,5S)-2-[6-(Bicyclo[2.2.1]hept-2-ylamino)-purin-9-yl]-5-(1,1-difluoro-ethyl)-tetrahydro-furan-3,4-diol]	>257.00	7.14
Cc1nc(NC2CCOCC2)c2ncn([C@@H]3O[C@H](CF)[C@@H](O)[C@H]3O)c2n1 [Example 2, 5′-Deoxy-5′-fluoro-2-methyl-N-(tetrahydro-pyran-4-yl)-adenosine]	>226.00	11.8
